What was measured:
[1] = system: mice; assay: Induction of CIAKI by intravenous contrast media in mice; format: in vivo, C57/BL6 mice; conditions: 10 gI/kg iv; for Cr vs normal control / KIM-1 vs normal control / NGAL vs normal control: 48 h after administration
Experimental: The two different […] in terms of viscosity and osmolality were administered intravenously to 5 mice for each group. Ten grams of iodine per body weight (gI/kg) of each CM was injected by a 26-gauge syringe through the tail vein. The blood samples for the analysis of functional assessment of kidney injury such as Cr, NGAL, and KIM-1 were taken at 48 h after administration (FIGS. 10(A, B)).

[2] = system: mice with ischemic AKI (bilateral renal IRI); assay: Renal IRI (ischemic AKI) mouse model: renal function markers; format: in vivo, C57/BL6 mice
Experimental: Briefly, mice were anesthetized with isoflurane using a vaporizer, and bilateral renal arteries were clamped for 30 min (2, 49). After the ischemic time, clamps were released to induce blood reperfusion. […] Serum and kidney tissue were collected 24 h after renal IRI. […] After reperfusion for 24 h, kidney tissues (˜20 mg) were homogenized in cold PBS containing indomethacin (10 μg/mL) and then centrifuged for 10 min at 12,000 rpm. Protein concentrations of supernatant were determined by BCA assay (ThermoFisher Scientific, Rockford, IL). The PGE2 level was measured using a PGE2 ELISA kit (R&D Systems, Minneapolis, MN) in triplicate. PGE2 levels were expressed as nanograms of PGE2 per milligram of protein. Renal function was assessed by determining the serum levels of blood urea nitrogen (BUN; Abcam), serum creatinine (Agilent 6410 LC-MS/MS, Agilent, Santa Clara, CA), lipocalin-2 (R&D Systems), and kidney injury molecule-1 (KIM-1; R&D Systems) after reperfusion for 24 h. Measurement of serum creatinine was by HPLC. Serum creatinine was assessed using an Agilent 6410 LC-MS/MS system coupled with an Agilent 1200 series HPLC system (Agilent). […] The mixture was centrifuged at 13,000 rpm for 10 min after vigorous vortex, and 1 μL of supernatant was then injected into the LC-MS/MS system. The chromatography separation was performed on a Hypersil GOLD C18 column (150×2.1 mm, 3 m, Thermo Scientific) using a mobile phase of 0.1% formic acid solution and acetonitrile [70:30 (vol/vol)]. The flow rate was 0.2 mL/min. Electrospray ionization was performed in the positive ion mode. The capillary voltage was set at 4,000 V. Nitrogen as the nebulizing gas was set at 15 psi, and the drying gas temperature was set at 300° C., with a flow rate of 6 L/min. The multiple-reaction monitoring mode using specific precursor/production transition was used for quantification. […] The peak areas for all analytes were integrated automatically using Agilent Mass Hunter Analysis software (version B.01.04).

[3] = system: mice with ischemic AKI (bilateral renal IRI); assay: Renal IRI model: necrotic and apoptotic cell death, gross pathology; format: in vivo, C57/BL6 mice; conditions: 24 h after renal IRI; 5 mg/kg ip three times
Excerpt: To evaluate necrosis, 5-μm-thick paraffin sections were stained with hematoxylin and eosin. Tubular injury of individual slides was scored semi-quantitatively according to a scoring system by a pathologist in a blinded manner. The scoring system was as follows: 0, no damage; 1, patchy isolated unicellular necrosis; 2, tubular necrosis <25%; 3, tubular necrosis 25-50%; and 4, tubular necrosis >50%. To analyze the frequency of apo ptosis, 5-μm-thick paraffin sections were subjected to a TUNEL assay (Millipore, Temecula, CA) according to the manufacturer's protocol. TUNEL-positive cells were counted in at least five separate fields (64 magnification) in the outer medulla, and the apoptosis index (in %, number of apoptosis cells/total number of cells) was calculated using GENASIS software.

[4] = system: mice with ischemic AKI (bilateral renal IRI); assay: Renal IRI model: proinflammatory cytokines and HMGB1; format: in vivo, C57/BL6 mice; conditions: 24 h after renal IRI, vs IRI-vehicle mice
Experimental: Inflammatory cytokine mRNA and protein levels were measured by real-time PCR and ELISA. Kidney tissue and serum were harvested after reperfusion for 24 h. Total RNA was extracted from frozen kidney tissue using TRIzol reagent (ThermoFisher Scientific) according to the manufacturer's protocol. RNA was converted to cDNA using oligo-dT primers. IL-17, TNF-α, and IL-1b mRNA levels were determined by real-time PCR. Serum IL-17 (R&D Systems), TNF-α (R&D Systems), and IL-10 (R&D Systems) were measured using commercial ELISA kits according to the manufacturer's instructions.

[5] = system: mice with ischemic AKI (bilateral renal IRI); assay: Renal IRI model: renal vasodilation and renal Doppler flux (RBF); format: in vivo, C57/BL6 mice; conditions: 24 h following IRI
Experimental: The inner arteriolar area of the outer medulla was determined using α-smooth muscle actin (α-SMA)-stained sections. Kidneys were removed without perfusion under inhalational isoflurane anesthesia, divided into three pieces horizontally, immediately fixed in 10% formalin, and then embedded in paraffin. The inner area of α-SMA-positive vessels in the outer medulla was measured using ImageJ. The results are expressed as average areas of renal arteries in the outer medulla. As a surrogate for RBF, we used noninvasive laser Doppler flowmetry (periflux system 5000, Perimed) to measure flux, placing laser-Doppler probes at a fixed position on the kidney surface and recording renal cortical measurements. […] The relative increase represents the percent increase in RDF from baseline to peak for each test.

[6] = system: mice with ischemic AKI (bilateral renal IRI); assay: Renal IRI model: cAMP, AMP and adenosine levels; format: in vivo, C57/BL6 mice; conditions: 24 h post-IRI, vs sham mice
Experimental: After reperfusion for 24 h, kidney tissues were harvested, homogenized in 10 volumes of 0.1 M HCl, and centrifuged for 10 min at 12,000 rpm. cAMP levels in kidney tissues and serum were measured using a cAMP Complete ELISA kit (Enzo Life Science, Farmingdale, NY). AMP and adenosine in kidney tissue were assessed by Agilent 6410 LC-MS/MS. Serum adenosine was measured using an assay kit (Abnova, Walnut, CA).

[7] = system: mice with ischemic AKI (bilateral renal IRI); assay: Renal IRI model: PGE2 (EP1-EP4) and adenosine A2A receptor expression; format: in vivo, C57/BL6 mice; conditions: 24 h post-IRI
Experimental: PGE2 receptors (EP1, EP2, EP3, and EP4) and adenosineA2A receptor mRNA levels were deter-mined by real-time PCR. Their protein levels were determined by Western blot assay and immunofluorescence analysis.

[8] = system: contrast-induced acute kidney injury (CIAKI) mice; assay: CIAKI mouse model: renal function (serum creatinine, NGAL, KIM-1); format: in vivo, C57/BL6 mice
Experimental: Female mice were injected with 10 gI/kg of Visipaque (iodixanol) via the tail vein. […] For inhibition of the EP4s, mice were treated with 0.2 mg/kg/day of ONO-AE3-208 by subcutaneous injection for 14 days. Serum and kidney tissue were collected 48 h after the iodixanol injection.
Renal function was assessed by determining the serum levels of creatinine (Arbor Assays, Ann Arbor, MI, USA), NGAL (R&D Systems), and KIM-1 (R&D Systems) at 48 h after the iodixanol injection.

[9] = system: human renal proximal tubular epithelial cells (hRPTECs); assay: hRPTEC cell viability (MTT assay) with iodixanol; format: cell-based; conditions: iodixanol 50 mgI/mL, 24 h; PGE1 100 ng/mL, PGE2 100 nM vs CM vehicle; CM vs normal control
Experimental: 3-(4,5-Dimethyl thiazol-2-yl)-2,5-diphenyl tetrazolium bromide (MTT) assay was used to assess cell viability. The hRPTECs were cultivated in 96-well plates at a density of 10^5 cells/mL and then incubated for 24 h. […] Then, 10 µM MTT (Sigma-Aldrich) was added to each well for an additional 4 h. The blue MTT formazan precipitate was dissolved in 100 mL dimethyl sulfoxide. The absorbance at 540 nm was measured with a multi-well plate reader. Cell viability was expressed as a percentage of the no-treatment cells, as the mean value±standard deviation of the six independent experiments.

[10] = system: human renal proximal tubular epithelial cells (hRPTECs); assay: hRPTEC apoptosis by flow cytometry with iodixanol; format: cell-based
Experimental: Human renal proximal tubular epithelial cells (hRPTECs) were purchased from the American Type Culture Collection (#PCS-400-010TM, Manassas, VA, USA). These cells were grown in 75 cm^2 flasks in Renal Epithelial Cell Basal Medium (PCS-400-030TM, ATCCVR) supplemented with Renal Epithelial Cell Growth Kit (PCS-400-040TM, ATCCVR).
After the treatment described in the section above, the hRPTECs were pelleted by centrifugation at 1800 rpm for 10 min and incubated with annexin V fluorescein isothiocyanate and propidium iodide using an Apoptosis Detection Kit I (#556547, BD Biosciences, San Jose, CA, USA) according to the manufacture's instruction. Then quantification was conducted using a FACSC flow cytometer with Cell Quest software (BD Biosciences).

[11] = system: contrast-induced acute kidney injury (CIAKI) mice; assay: CIAKI mouse model: renal blood flow (laser Doppler flux); format: in vivo, C57/BL6 mice
Experimental: Total RBF was assessed by measuring renal Doppler flux using noninvasive laser Doppler flowmetry (PeriFlux System 5000, Perimed AB, Sweden). Laser Doppler probes were placed on the kidney surface to measure the renal flux. The flux was measured 48 h after CM administration. The relative increase represented the percentage increase in renal blood flow from baseline to peak for each test. Statistical significance was set as p<0.05.

[12] = system: contrast-induced acute kidney injury (CIAKI) mice; assay: CIAKI mouse model: necrotic and apoptotic cell death, gross findings; format: in vivo, C57/BL6 mice; conditions: 48 h after CM
Experimental: Kidneys were harvested at 48 h after the CM injection, fixed in 4% phosphate-buffered formalin, and embedded in paraffin. To evaluate necrosis, […] paraffin sections were stained with hematoxylin and eosin. Tubular injury was scored semi-quantitatively according to a system by a pathologist who examined at least 20 separate fields (400× magnification) in the outer medulla, which is the zone most sensitive to ischemic injury. The scoring system was as follows: 0, no damage; 1, patchy isolated unicellular necrosis; 2, tubular necrosis <25%; 3, tubular necrosis 25-50%; and 4, tubular necrosis >50%. At least 20 consecutive high-power fields per section were scored by two operators blind to the details of the experiment. To analyze the frequency of apoptosis, […] paraffin sections were subjected to terminal deoxynucleotidyl transferase-mediated dUTP nick-end labeling (TUNEL) assay (Millipore, Temecula, CA, USA) according to the manufacturer's protocol. Four […] paraffin sections were incubated with the TUNEL reaction mixture at 37° C. for 1 h, followed by incubation with a horseradish peroxidase-conjugated detection antibody. The signals were visualized using diaminobenzidine (Sigma-Aldrich). After counterstaining with Mayer's hematoxylin, TUNEL-positive cells were counted in at least five separate fields (640× magnification) in the outer medulla, and the apoptosis index (%, number of apoptosis cells/total number of cells) was calculated using GENASIS software.

[13] = iodixanol 10 gI/kg + vehicle, 48 h after CM

CN(CC(O)CO)C(=O)c1c(I)c(NC(=O)C(CO)CO)c(I)c(C(=O)N(C)CC(O)CO)c1I (stereo not drawn) [Xenetix]
Cr vs normal control [1]: significant increase | KIM-1 vs normal control [1]: did not show significant differences | NGAL vs normal control [1]: did not show significant differences

COc1ccc2c(c1)c(CC(=O)O)c(C)n2C(=O)c1ccc(Cl)cc1 [indomethacin, reference compound]
BUN (serum) ([2]; 24 h after renal IRI, vs IRI-vehicle mice, dosing before and after IRI): increase | tissue congestion in the outer medulla (gross pathology) [3]: worsened | HMGB1 levels in kidney tissue [4]: increased | RDF-inferred RBF [5]: reduced | renal cAMP [6]: reduced | EP1 receptor mRNA levels [7]: increased | EP4 receptor mRNA levels [7]: reduced | levels of EP2 receptors [7]: no effect | levels of EP3 receptors [7]: no effect

CC(=O)N(CC(O)CN(C(C)=O)c1c(I)c(C(=O)NCC(O)CO)c(I)c(C(=O)NCC(O)CO)c1I)c1c(I)c(C(=O)NCC(O)CO)c(I)c(C(=O)NCC(O)CO)c1I (stereo not drawn) [Visipaque, iodixanol]
necrosis and apoptosis (Renal injury score and TUNEL assay) vs normal control ([1]; 48 h): significantly higher | Cr vs normal control [1]: elevation | KIM-1 vs normal control [1]: elevation | NGAL vs normal control [1]: elevation | serum KIM-1 in CM-treated mice [8, 13]: 1.41 ± 0.41 ng/mL | serum NGAL in CM-treated mice [8, 13]: 299.71 ± 38.64 ng/mL | serum creatinine in CM-treated mice [8, 13]: 1.94 ± 0.24 mg/dL | cell viability (MTT), in words [9]: significantly lower | increase of apoptosis rate of hRPTECs in the CM group compared to the normal group ([10]; iodixanol 50 mgI/mL, 24 h): more than 2.5 times

CC(C(=O)Nc1cc(C#N)ccc1CCCC(=O)O)c1ccc(F)c2ccccc12 (stereo not drawn) [ONO-AE3-208]
beneficial effects of SW033291 on BUN, serum creatinine, serum Kim-1 and RDF-inferred RBF ([2]; ONO-AE3-208 10 mg/kg co-administered with the three-dose schedule of SW033291 in IRI mice): substantially blocked | serum creatinine, absence or presence of ONO-AE3-208 ([8]; CIAKI mice (FIG. 15E), SW033291 line = CM + SW033291, ONO-AE3-208 line = CM + ONO-AE3-208 + SW033291): 1.51 ± 0.31 mg/dL | serum NGAL, absence or presence of ONO-AE3-208 ([8]; CIAKI mice (FIG. 15F), SW033291 line = CM + SW033291, ONO-AE3-208 line = CM + ONO-AE3-208 + SW033291): 229.85 ± 27.12 ng/mL | serum KIM-1, absence or presence of ONO-AE3-208 ([8]; CIAKI mice (FIG. 15G), SW033291 line = CM + SW033291, ONO-AE3-208 line = CM + ONO-AE3-208 + SW033291): 0.85 ± 0.26 ng/mL | increase in RBF by SW033291 treatment ([11]; ONO-AE3-208 with SW033291 (FIG. 15H)): blocked the increase

CCCCC[C@H](O)/C=C/[C@H]1[C@H](O)CC(=O)[C@@H]1CCCCCCC(=O)O [PGE1, prostaglandin E1]
serum creatinine, effect in words ([8]; CIAKI mice, 48 h after CM): decreased | TUNEL-positive cell proportions vs CIAKI mice, in words [12]: significantly lower | renal injury score, effect in words [12]: No reduction | vascular congestion in the outer medullary region (gross findings) [12]: prominent vascular congestion | cell viability (MTT), in words [9]: did not show any difference | apoptotic rate vs CM vehicle group, in words ([10]; PGE1 100 ng/mL with iodixanol 50 mgI/mL): no differences | preservation of RBF from CM-induced reduction, in words ([11]; 48 h after CM): did not
